What all share (assay): cells
For one test, the system named is FaDu. It is filed as cell-based. The protocol: (§1) Cells were plated in 96 well black walled-clear bottom plates (Griener), DLD-1 WT cells at 2500 cells per well, FaDu, and HeLa cells at 5000 cells per well, and HCT116 at 3000 cells per well, in growth media containing 10% FBS. Cells were allowed to adhere at room temperature for 60 minutes before returning to a 37 C, 5% CO2 incubator. After 24 hours, media was removed and replaced with fresh growth media containing various drug concentrations. Each drug concentration was added in triplicate. Non-drug treated controls contained growth media only. Cells were returned to the incubator. Ninety-six hours after addition of drug, cells were fixed with 4% paraformaldehyde for 20 minutes and stained with Hoechst at 1 ug/mL. The plates were imaged on a Cytation 5 auto imager (BioTek) and cells were counted using CellProfiler (http://cellprofiler.org). The percent cell growth delay was calculated and data plotted using GraphPad Prism

A further test has as its system DLD-1 WT cells. In kind it is cell-based. The protocol: as §1
The subject of the next test is HeLa cells. It is filed as cell-based. How it is done: as §1
The next test deals with HCT116. In kind it is cell-based, human. In short, it runs like this: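 DLD-1 WT (2500/well), FaDu and HeLa (5000/well) and HCT116 (3000/well) were grown in 10% FBS media and dosed in triplicate 24 h after plating. After 96 h of drug exposure at 37 °C, cells were fixed, Hoechst-stained and counted by imaging; percent growth delay was calculated versus untreated controls.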

The structures appear in SMILES notation. Like-named read-outs stand apart in the source and are kept apart here. Residues, ends and D or L forms follow the SMILES beside them. *: point of attachment. X4 = CC[C@@]1(O)C(=O)OCc2c1cc1n(c2=O)Cc2c-1nc1cc(F)c(C)c3c1c2[C@@H](NC(=O)O[C@@H](C)[C@H](C)S*)CC3; X1 = CC[C@@]1(O)C(=O)OCc2c1cc1n(c2=O)Cc2c-1nc1cc(F)c(C)c3c1c2[C@@H](NC(=O)O[C@H](C)[C@H](C)S*)CC3

On to `CC[C@H](C)[C@H](NC(=O)[C@@H]1CCCN1C(=O)[C@H](CC(N)=O)NC(=O)[C@H](CCC(N)=O)NC(=O)[C@H](CCC(=O)O)NC(=O)[C@H](C)N)C(=O)N[C@@H](Cc1ccc(O)cc1)C(=O)N[C@@H](Cc1c[nH]c2ccccc12)C(=O)N[C@@H](C)C(=O)N[C@@H](CCCNC(=N)N)C(=O)N[C@@H](Cc1ccc(O)cc1)C(=O)N[C@@H](C)C(=O)N[C@@H](CC(=O)O)C(=O)N[C@@H](Cc1c[nH]c2ccccc12)C(=O)N[C@@H](CC(C)C)C(=O)N[C@@H](Cc1ccccc1)C(=O)N[C@H](C(=O)N[C@H](C(=O)N1CCC[C@H]1C(=O)N[C@@H](CC(C)C)C(=O)N[C@@H](CC(C)C)C(=O)N[C@@H](CC(C)C)C(=O)N[C@@H](CC(C)C)C(=O)N[C@@H](CC(=O)O)C(=O)N[C@@H](CC(C)C)C(=O)N[C@@H](C)C(=O)N[C@@H](CC(C)C)C(=O)N[C@@H](CC(C)C)C(=O)N[C@H](C(=O)N[C@@H](CC(=O)O)C(=O)N[C@@H](C)C(=O)N[C@@H](CC(=O)O)C(=O)N[C@@H](CCC(=O)O)C(=O)N[C@@H](CSS[C@@H](C)[C@H](C)OC(=O)N[C@H]1CCc2c(C)c(F)cc3nc4c(c1c23)Cn1c-4cc2c(c1=O)COC(=O)[C@]2(O)CC)C(=O)NCC(=O)O)C(C)C)[C@@H](C)O)[C@@H](C)O` [Compound 5] (H-AEQNPIYWARYADWLFTTPLLLLDLALLVDADEC(X4)G-OH; N-terminus and C-terminus assumed), for which the IC50 in the test with FaDu (96 h) came out at 0.06 nM; in the test on DLD-1 WT cells (96 h), 0.83 nM; with HeLa cells (96 h), 0.07 nM; in the test with HCT116 (96 h) it was 0.12 nM.
In the same order, the values of `CC[C@H](C)[C@H](NC(=O)[C@@H]1CCCN1C(=O)[C@H](CC(N)=O)NC(=O)[C@H](CCC(N)=O)NC(=O)[C@H](CCC(=O)O)NC(=O)[C@H](C)N)C(=O)N[C@@H](Cc1ccc(O)cc1)C(=O)N[C@@H](Cc1c[nH]c2ccccc12)C(=O)N[C@@H](C)C(=O)N[C@@H](CCCNC(=N)N)C(=O)N[C@@H](Cc1ccc(O)cc1)C(=O)N[C@@H](C)C(=O)N[C@@H](CC(=O)O)C(=O)N[C@@H](Cc1c[nH]c2ccccc12)C(=O)N[C@@H](CC(C)C)C(=O)N[C@@H](Cc1ccccc1)C(=O)N[C@H](C(=O)N[C@H](C(=O)N1CCC[C@H]1C(=O)N[C@@H](CC(C)C)C(=O)N[C@@H](CC(C)C)C(=O)N[C@@H](CC(C)C)C(=O)N[C@@H](CC(C)C)C(=O)N[C@@H](CC(=O)O)C(=O)N[C@@H](CC(C)C)C(=O)N[C@@H](C)C(=O)N[C@@H](CC(C)C)C(=O)N[C@@H](CC(C)C)C(=O)N[C@H](C(=O)N[C@@H](CC(=O)O)C(=O)N[C@@H](C)C(=O)N[C@@H](CC(=O)O)C(=O)N[C@@H](CCC(=O)O)C(=O)N[C@@H](CSS[C@@H](C)[C@@H](C)OC(=O)N[C@H]1CCc2c(C)c(F)cc3nc4c(c1c23)Cn1c-4cc2c(c1=O)COC(=O)[C@]2(O)CC)C(=O)NCC(=O)O)C(C)C)[C@@H](C)O)[C@@H](C)O` [Compound 6] (H-AEQNPIYWARYADWLFTTPLLLLDLALLVDADEC(X1)G-OH; N-terminus and C-terminus assumed) are 0.76 nM, 13.9 nM, 0.62 nM and 1 nM.
On to `CC[C@@]1(O)C(=O)OCc2c1cc1n(c2=O)Cc2c-1nc1cc(F)c(C)c3c1c2[C@@H](N)CC3` [R^8H-5, (10S,23S)-23-amino-10-ethyl-18-fluoro-10-hydroxy-19-methyl-8-oxa-4,15-diazahexacyclo[14.7.1.02,14.04,13.06,11.020,24]tetracosa-1,6(11),12,14,16(24),17,19-heptaene-5,9-dione; methanesulfonic acid, reference compound], for which the IC50 was 0.04 nM in the test with FaDu (Homo sapiens, FaDu cells, 96 h after addition of drug, read-out: FaDu (IC50)); 0.13 nM in the test on DLD-1 WT cells (Homo sapiens, DLD-1 WT cells, 96 h after addition of drug, IC = incomplete curve, read-out: DLD-1 (IC50)); 0.12 nM with HeLa cells (Homo sapiens, HeLa cells, 96 h after addition of drug, read-out: HeLa (IC50)); 0.05 nM in the test with HCT116 (Homo sapiens, HCT-116, HCT116 cells, 96 h after addition of drug, read-out: HCT116 (IC50)).

Broadly, the IC50 is the point on the concentration scale where inhibition reaches its midpoint.

For the origin of these results see patent US12410262B2, “Peptide conjugates of cytotoxins as therapeutics” (Cybrexa 2, Inc., priority 2019, dated 2025).
